{"source": "patent US20240209456A1", "about": "“METHODS AND COMPOSITIONS RELATED TO CELL-CYCLE RNA's” (BETH ISRAEL DEACONESS MEDICAL CENTER, priority 2021, published 2024)", "format_in_all_cases": "binding", "key": {"TIP60": {"biological_target": "TIP60 (Homo sapiens, UniProt Q92993)", "sequence (Q92993 whole entry)": "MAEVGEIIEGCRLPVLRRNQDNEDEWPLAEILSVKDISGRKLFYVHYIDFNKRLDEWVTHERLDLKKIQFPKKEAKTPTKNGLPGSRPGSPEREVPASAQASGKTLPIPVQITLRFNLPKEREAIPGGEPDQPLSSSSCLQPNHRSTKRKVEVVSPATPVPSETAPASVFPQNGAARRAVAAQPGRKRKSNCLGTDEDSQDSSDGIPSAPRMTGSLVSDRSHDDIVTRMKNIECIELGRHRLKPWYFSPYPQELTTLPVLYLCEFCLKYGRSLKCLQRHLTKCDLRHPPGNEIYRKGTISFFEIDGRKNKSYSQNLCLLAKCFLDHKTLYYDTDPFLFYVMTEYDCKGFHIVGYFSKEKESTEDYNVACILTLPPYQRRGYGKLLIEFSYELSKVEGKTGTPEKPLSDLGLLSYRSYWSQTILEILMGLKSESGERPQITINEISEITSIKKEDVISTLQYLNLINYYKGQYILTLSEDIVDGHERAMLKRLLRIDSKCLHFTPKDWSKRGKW", "test": "REMSA/EMSA with TIP60 protein", "design": "5 μg of full length purified H2A.Z (Abcam) and TIP60 (SignalChem) proteins were incubated; purchased SignalChem", "details": "in vitro, 32P-labeled oligonucleotide, purified TIP60; RNA and DNA probes at same molar concentration", "experimental": "(§1) RNA oligonucleotides (15 pmol) were end-labeled with [γ-^32P] ATP (Perkin Elmer) and T4 polynucleotide kinase (New England Biolabs). Reactions were incubated at 37° C. for 1 h and then passed through G-25 spin columns (GE Healthcare) according to the manufacturer's instructions to remove unincorporated radioactivity. Labeled samples were gel-purified on 10% polyacrylamide gels. Binding reactions were carried out in 10 μL volumes in the following buffer: 5 mM Tris pH 7.4, 5 mM MgCl2, 1 mM DTT, 3% v/v glycerol, 100 mM NaCl. 5 μg of full length purified H2A.Z (Abcam) and TIP60 (SignalChem) proteins were incubated with 1.1 nM of ^32P-labeled ss RNAs. All reactions were assembled on ice and then incubated at room temperature for 30 min. Samples were loaded onto 6% native polyacrylamide gels (0.5×TBE) at 4° C. for 3 h at 140 V. Various concentrations (1 μM-10 mM) of H2A.Z and K7 acetylated H2A.Z peptides (AnaSpec) were incubated with a fixed amount of probe in 50 mM Tris-HCl pH 7.5, 100 mM NaCl, 0.4 mM EDTA, and 40 U/ml RNasin, 1 mM DTT, 50% glycerol in a final volume of 10 μL. Thereafter, 1 μl glutaraldehyde (0.2% final concentration) was added into the mixture and incubated at room temperature for 15 minutes. Samples were loaded onto 10% native polyacrylamide gels (0.5×TBE) at 4° C. for 3 h at 170 V. All gels were dried upon fixation with Methanol and Acetic Acid and exposed to X-ray film."}, "H2A.Z": {"biological_target": "T1, H2A.Z (Homo sapiens, UniProt P0C0S5)", "T1 construct": "5 μg of full length purified H2A.Z (Abcam) and TIP60 (SignalChem) proteins were incubated; purchased Abcam", "T1 sequence (P0C0S5 whole entry)": "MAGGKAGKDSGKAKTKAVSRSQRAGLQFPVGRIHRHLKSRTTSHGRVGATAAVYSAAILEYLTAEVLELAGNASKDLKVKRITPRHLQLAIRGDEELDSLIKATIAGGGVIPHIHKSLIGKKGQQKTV", "test": "RNA electrophoresis mobility shift assay (REMSA) with H2A.Z protein", "details": "in vitro, 32P-labeled oligonucleotide, full length purified H2A.Z", "experimental": "as §1"}, "[1]": {"biological_target": "T2, H2A.Z and K7 acetylated H2A.Z peptides (Homo sapiens, UniProt P0C0S5)", "T2 construct": "purchased AnaSpec", "T2 sequence (P0C0S5 2-21)": "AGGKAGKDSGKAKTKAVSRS", "test": "REMSA with N-terminal H2A.Z peptides", "details": "in vitro, synthetic peptides", "experimental": "as §1"}}, "note": "Entries after “also recorded” stand apart in the source; their conditions may differ.", "data": [{"substance": "DM2: DNA oligonucleotide duplex of the same primary sequence as UR2 (sense CTTTCCTCCACTCTCCCTGGGA; antisense TCCCAGGGAGAGTGGAGGAAAG; DNA, backbone and methylation of C not given here; further chemistry not fully specified)", "values": [{"measurement": "complex formation with TIP60", "setting": "TIP60", "value": "weak complex formation"}]}, {"substance": "DM3: DNA oligonucleotide duplex of the same primary sequence as UR3 (sense GGCGTGGCGGTGGGCGCGCAGT; antisense ACTGCGCGCCCACCGCCACGCC; DNA, backbone and methylation of C not given here; further chemistry not fully specified)", "values": [{"measurement": "complex formation with TIP60", "setting": "TIP60", "value": "weak complex formation"}]}, {"substance": "DM9A: double-stranded DNA oligonucleotide of the same primary sequence as RM9A (sense GCCCTTTCCCCAGCCTTAGCGA; antisense TCGCTAAGGCTGGGGAAAGGGC; DNA, backbone and methylation of C not given here; further chemistry not fully specified)", "values": [{"measurement": "complex formation with TIP60", "setting": "TIP60", "value": "stronger TIP60 binding to the RNAs than to the DNA"}]}, {"substance": "Mut RM9A: mutated RM9A abolishing the predicted stem-loop structure, SEQ ID NO 86 (UUAUGUUAUUGUUUAUAUACGU; RNA, backbone not given here; further chemistry not fully specified)", "values": [{"measurement": "complex formation with TIP60", "setting": "TIP60", "value": "did change the strength and the mobility of the RNA-TIP60 complexes"}]}, {"substance": "RM9A: RNA oligonucleotide of common binding motif 9 in c-MYC SPEARs, 5′-GGCGUGGCGGUGGGCGCGCAGU-3′, SEQ ID NO 85 (GGCGUGGCGGUGGGCGCGCAGU; RNA, backbone not given here; further chemistry not fully specified)", "values": [{"measurement": "RNP complex formation with H2A.Z", "setting": "H2A.Z", "value": "able to form RNPs"}, {"measurement": "shift in migration with H2A.Z N-terminal peptides, unmodified and acetylated at lysine 7", "setting": "[1]", "value": "A shift in migration was observed"}, {"measurement": "complex formation with TIP60", "setting": "TIP60", "value": "able to form RNPs; also recorded: stronger TIP60 binding to the RNAs than to the DNA"}]}, {"substance": "UR1: unrelated RNA oligonucleotide lacking the common binding motif, SEQ ID NO 87 (GCGCCCUGCAGCCUGGUACGCG; RNA, backbone not given here; further chemistry not fully specified)", "values": [{"measurement": "RNP complex formation with H2A.Z", "setting": "H2A.Z", "value": "did not form detectable RNPs complexes"}, {"measurement": "complex formation with TIP60", "setting": "TIP60", "value": "did not form detectable RNPs complexes"}]}, {"substance": "UR2: unrelated RNA oligonucleotide lacking the common binding motif, SEQ ID NO 88 (CUUUCCUCCACUCUCCCUGGGA; RNA, backbone not given here; further chemistry not fully specified)", "values": [{"measurement": "RNP complex formation with H2A.Z", "setting": "H2A.Z", "value": "did not form detectable RNPs complexes"}, {"measurement": "complex formation with TIP60", "setting": "TIP60", "value": "did not form detectable RNPs complexes"}]}, {"substance": "UR3: unrelated RNA oligonucleotide lacking the common binding motif, SEQ ID NO 89 (GCCCUUUCCCCAGCCUUAGCGA; RNA, backbone not given here; further chemistry not fully specified)", "values": [{"measurement": "RNP complex formation with H2A.Z", "setting": "H2A.Z", "value": "did not form detectable RNPs complexes"}, {"measurement": "complex formation with TIP60", "setting": "TIP60", "value": "did not form detectable RNPs complexes"}]}]}
